Data set [1] is described as follows: HepG2 cytotoxicity (CellTiter-Glo). It is filed as cell-based. As to conditions: human, HepG2 cells; 48 h of exposure. Here is the method:
HepG2 is a human hepatoma commonly used in drug metabolism and hepatotoxicity studies.
HepG2 cells were seeded at a density of 7000 or 8000 cells/well in a 96-well plate. Twenty to twenty four hours later, cells were treated with test compound for 48 hours in 3-fold serial dilutions with a top test concentration of 50 or 150 μM. After the incubation, CellTiter-Glo reagent was added directly to the wells. The plate was shaken for 2 or 5 mins on a plate shaker then incubated at room temperature for a further 10 mins. Subsequently, 100 μL of the above solution was transferred to a white flat bottom opaque 96 well plate (or opaque-walled clear bottom plates taped with a white bottom seal) and luminescence recorded on a plate reader.
In general terms: Cellular ATP, detected with luciferase, serves as a proxy for viable cell number.

The target of data set [2] is T1, CYP2D6 (Homo sapiens, UniProt P10635).
T1 construct: using human liver microsomes; from tissue; host or cells: human liver microsomes
T1 sequence (P10635 whole entry): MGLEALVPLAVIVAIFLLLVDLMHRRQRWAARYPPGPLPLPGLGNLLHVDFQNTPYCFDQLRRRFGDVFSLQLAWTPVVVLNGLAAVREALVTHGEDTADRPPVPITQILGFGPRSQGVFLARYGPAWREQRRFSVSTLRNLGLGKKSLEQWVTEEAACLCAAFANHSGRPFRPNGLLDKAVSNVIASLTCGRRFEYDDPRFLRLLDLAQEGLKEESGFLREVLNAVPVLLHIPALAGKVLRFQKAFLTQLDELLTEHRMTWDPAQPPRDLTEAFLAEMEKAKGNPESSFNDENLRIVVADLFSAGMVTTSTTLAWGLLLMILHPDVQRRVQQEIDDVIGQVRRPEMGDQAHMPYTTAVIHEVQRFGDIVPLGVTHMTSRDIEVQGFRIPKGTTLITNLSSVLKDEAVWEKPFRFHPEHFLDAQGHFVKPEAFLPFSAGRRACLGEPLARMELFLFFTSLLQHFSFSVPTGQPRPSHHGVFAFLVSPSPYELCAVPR
Briefly: CYP inhibition assay, CYP2D6. It is filed as in vitro ADME. As to conditions: probe Bufaralol (10 μM), human liver microsomes. As to the method: (§1) In vitro CYP (cytochrome P450) enzyme inhibition studies predict a drug candidate's predisposition to inhibit cytochrome P450 enzymes. The cytochrome P450 (CYP) inhibition assay was run against CYP2D6 and CYP3A4 isoforms using human liver microsomes. For CYP2D6, the probe substrates was Bufaralol (10 μM) and the positive control was Quinidine (2.5 μM). Midazolam (5 μM) was chosen as the probe substrate for CYP3A4 and Ketocanazole (2.5 μM) was used as the positive control inhibitor. To increase the throughput of the assay, one concentration (10 μM) was tested. For analysis via LC-MS, internal standards of 1-OH-Bufuralol-maleate-[D9] for CYP2D6 and 1′-OH-Midazolam-13C3 for CYP3A4 were used.

In data set [3] the target is T2, CYP3A4 (Homo sapiens, UniProt P08684).
T2 construct: using human liver microsomes; from tissue; host or cells: human liver microsomes
T2 sequence (P08684 whole entry): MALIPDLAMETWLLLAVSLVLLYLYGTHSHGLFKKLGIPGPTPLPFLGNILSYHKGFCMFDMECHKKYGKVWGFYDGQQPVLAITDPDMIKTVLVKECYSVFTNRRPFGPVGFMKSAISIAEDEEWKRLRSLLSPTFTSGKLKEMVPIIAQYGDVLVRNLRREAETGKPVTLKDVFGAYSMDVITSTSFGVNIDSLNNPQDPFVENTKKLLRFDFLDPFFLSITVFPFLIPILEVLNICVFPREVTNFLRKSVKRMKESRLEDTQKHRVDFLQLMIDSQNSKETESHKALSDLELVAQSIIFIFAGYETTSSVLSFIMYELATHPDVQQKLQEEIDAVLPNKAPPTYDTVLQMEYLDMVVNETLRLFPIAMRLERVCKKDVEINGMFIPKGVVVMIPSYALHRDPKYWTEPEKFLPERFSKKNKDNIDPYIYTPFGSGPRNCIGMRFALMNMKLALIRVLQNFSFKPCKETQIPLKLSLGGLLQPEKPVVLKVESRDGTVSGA
Briefly: CYP inhibition assay, CYP3A4. As to conditions: probe Midazolam (5 μM), human liver microsomes. The format is in vitro ADME. As to the method:
as §1
In general terms: Microsomes from liver hold many membrane-bound enzymes, among them those of drug oxidation.

The target of data set [4] is T3, binding between PCSK9 and the LDL receptor (Homo sapiens, UniProt Q8NBP7).
T3 construct: purchased CircuLex
T3 sequence (Q8NBP7 153-692): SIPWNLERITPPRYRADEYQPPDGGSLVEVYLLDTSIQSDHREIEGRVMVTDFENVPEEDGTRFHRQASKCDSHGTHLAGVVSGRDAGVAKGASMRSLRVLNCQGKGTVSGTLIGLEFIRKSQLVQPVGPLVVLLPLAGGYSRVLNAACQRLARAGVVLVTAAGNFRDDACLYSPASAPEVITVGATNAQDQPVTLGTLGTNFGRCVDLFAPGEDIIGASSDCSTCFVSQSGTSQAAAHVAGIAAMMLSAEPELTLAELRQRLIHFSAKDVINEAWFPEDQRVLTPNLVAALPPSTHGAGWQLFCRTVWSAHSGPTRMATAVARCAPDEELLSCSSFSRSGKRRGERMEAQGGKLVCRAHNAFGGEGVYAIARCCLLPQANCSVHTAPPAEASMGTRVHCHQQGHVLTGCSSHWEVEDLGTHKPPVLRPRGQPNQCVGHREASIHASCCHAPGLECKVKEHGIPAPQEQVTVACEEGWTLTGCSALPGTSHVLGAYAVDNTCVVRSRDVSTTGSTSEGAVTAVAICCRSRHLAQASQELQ
T3 sequence (Q8NBP7 31-152 partner limits assumed): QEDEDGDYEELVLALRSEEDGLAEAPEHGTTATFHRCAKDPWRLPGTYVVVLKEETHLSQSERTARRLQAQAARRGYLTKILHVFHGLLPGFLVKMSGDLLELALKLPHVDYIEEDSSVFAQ
Briefly: In vitro PCSK9-LDLR binding assay (CircuLex kit). As to the method: Compounds were assayed for their ability to inhibit the binding between PCSK9 and the LDL receptor using a CircuLex PCSK9-LDLR in vitro binding assay kit. The procedure employed the reagents and buffers included in the kit as follows. 88 μL of 1× reaction buffer was placed into each well. 5 μL of test compound in 20% DMSO was added into each well. 10 mM solutions of test compounds in DMSO were diluted by 3-fold series to give 6-point concentration curves. The compounds were then diluted 20-fold with the reaction buffer. To each well was then added 7 μL of His-tagged PCSK9 wild type solution (1000 ng/mL). The plate was then covered with a plate sealer and incubated at room temperature for 3 hours, shaking at 300 rpm on an orbital microplate shaker. The test solutions were washed 4 times with 350 μL wash buffer. One 100 μL of biotinylated anti-His-tag monoclonal antibody was added to each well. The plate was covered with a plate sealer, and incubated at room temperature for 1 h, shaking at 300 rpm. The test solutions were washed 4 times with 350 μL wash buffer. […] of HRP-conjugated streptavidin was added to each well. The plate was covered with a plate sealer, and incubated at room temperature for 20 min, shaking at 300 rpm. The test solutions were washed 4 times with 350 μL wash buffer. 100 μL of substrate reagent was added into each well. The plate was covered with a plate sealer, and incubated at room temperature for 15 min, shaking at 300 rpm. Finally, 100 μL of stop solution was added to each well in the same order as the previously added substrate reagent.
The results of the binding assay are shown in FIG. 3, reported as IC50 (μM).

Data set [5] deals with Caco-2 cells. Briefly: Caco2 assay. It is filed as in vitro ADME, human. As to conditions: 10 μM, 90 min. As to the method:
Caco-2 cells are a human colon epithelial cancer cell line used as a model of human intestinal absorption of drugs and other compounds. The compounds were assessed for their oral suitability in this assay, as compounds with good oral bioavailability likely evade efflux by pumps. The permeability coefficient (Papp) denotes the permeability of the drug through a monolayer of cells. Transport is assessed in both directions (apical to basolateral (A-B) and basolateral to apical (B-A)) across the cell monolayer to enable an efflux ratio to be determined which provides an indicator as to whether a compound undergoes active efflux.
Caco-2 cells were removed from an incubator and the cell monolayer was washed with HBSS buffer before the Transepithelial/transendothelial electrical resistance (TEER) was measured at room temperature. The transport experiment was started by adding 10 μM solution of test compounds in HBSS buffer containing luciferase yellow to the apical side. A sample from the apical chamber was taken at t=0 min. The volumes of the apical and basal sides were 400 μL and 800 μL respectively. The apical and basolateral plates were incubated at 37° C. for 90 min. After 90 min, the apical plate was separated from the basolateral plate and an aliquot from the basolateral side was transferred to an opaque plate for the determination of lucifer yellow concentration at t=90 min. The luciferase yellow concentration of each sample was measured by fluorimetry using excitation and emission wavelengths of 485 nm and 535 nm, respectively. Samples from the donor and receiver chambers were diluted with 0.4% DMSO in HBSS then mixed with ACN and either osalmid or imipramine, which were used as an IS in preparation for analysis by LC-MS/MS. Samples were then assayed for their levels of test compounds using an UPLC-MS/MS-29(API6500+) or an LC-MS/MS-014(API4000) instrument operating in a positive electrospray ionisation mode.

In data set [6] the target is T4, hERG channel (Homo sapiens, UniProt Q12809).
T4 construct: expressed in transfected cells; host or cells: CHO
T4 sequence (Q12809 whole entry): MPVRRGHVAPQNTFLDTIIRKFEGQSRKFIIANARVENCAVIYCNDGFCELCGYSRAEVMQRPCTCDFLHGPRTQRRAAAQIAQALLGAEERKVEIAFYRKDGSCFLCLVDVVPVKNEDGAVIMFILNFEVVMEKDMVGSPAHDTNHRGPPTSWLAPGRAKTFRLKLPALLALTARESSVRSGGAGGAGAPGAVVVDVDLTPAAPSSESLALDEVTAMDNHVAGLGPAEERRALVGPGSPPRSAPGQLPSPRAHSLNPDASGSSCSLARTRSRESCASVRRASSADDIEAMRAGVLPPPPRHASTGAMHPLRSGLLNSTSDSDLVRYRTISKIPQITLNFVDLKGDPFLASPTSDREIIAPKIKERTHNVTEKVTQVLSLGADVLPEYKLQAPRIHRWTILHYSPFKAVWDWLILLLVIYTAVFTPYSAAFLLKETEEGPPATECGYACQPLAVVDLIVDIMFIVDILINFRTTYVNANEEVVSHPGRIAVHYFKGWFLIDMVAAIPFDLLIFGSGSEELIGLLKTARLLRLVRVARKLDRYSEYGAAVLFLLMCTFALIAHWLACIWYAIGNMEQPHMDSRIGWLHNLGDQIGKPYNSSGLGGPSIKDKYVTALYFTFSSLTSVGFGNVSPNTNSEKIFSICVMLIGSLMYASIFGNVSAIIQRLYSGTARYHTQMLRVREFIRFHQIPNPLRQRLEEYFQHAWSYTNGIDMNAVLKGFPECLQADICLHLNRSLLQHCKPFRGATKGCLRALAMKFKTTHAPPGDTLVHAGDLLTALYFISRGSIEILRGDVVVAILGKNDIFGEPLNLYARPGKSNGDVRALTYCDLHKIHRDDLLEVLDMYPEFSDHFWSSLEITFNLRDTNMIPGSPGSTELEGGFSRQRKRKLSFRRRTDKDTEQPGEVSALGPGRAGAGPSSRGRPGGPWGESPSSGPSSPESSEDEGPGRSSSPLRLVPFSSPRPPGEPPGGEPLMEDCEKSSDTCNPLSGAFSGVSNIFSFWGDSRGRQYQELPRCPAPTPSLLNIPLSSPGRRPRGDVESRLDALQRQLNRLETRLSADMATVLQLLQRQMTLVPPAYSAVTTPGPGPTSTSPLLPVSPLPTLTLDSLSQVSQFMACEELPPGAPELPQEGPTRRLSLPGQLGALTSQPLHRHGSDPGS
Briefly: hERG assay (automated QPatch). It is filed as cell-based. Conditions: CHO cells expressing hERG channels. Here is the method:
A CHO cell line stably transfected with hERG cDNA and expressing hERG channels was used. Cells used in the QPatch all met the following criteria: under microscopy examination, the majority of cells in suspension were single and isolated, their viability was greater than 95%, cell density ranged between 3-8×10^6 cells/mL in the final suspension before applying to the QPatch stir chamber. Cells were used within 4 hours of harvesting. Whole-cell recordings were performed using automated QPatch (Sophion Bioscience, Denmark). The cells were voltage clamped at a holding potential of −80 mV. The hERG current was activated by depolarising at +20 mV for 5 seconds, after which the current was taken back to −50 mV for 2.5 seconds to remove the inactivation and observe the outward tail current. The maximum amount of tail current was used to determine hERG current amplitude.
Background: hERG is a cardiac potassium channel; its block is linked to QT prolongation.

This note sets out measurements from patent US20240124428A1, “HETEROCYCLIC INHIBITORS OF PCSK9” (CARDIO THERAPEUTICS PTY LTD, priority 2020, published 2024).

One may read the IC50 as the concentration needed to halve the response being measured. A higher IC50 goes with lower potency. A word on the inhibition: it is the change of the read-out against control, counted positive when it falls.

Molecules are shown by their SMILES.

`Cc1ccc(-c2cc(CN3CCC(F)(F)[C@H](N)C3)cc(NC(=O)c3cc(-c4ccccc4)ccn3)c2)cn1` [Compound 122] displayed an IC50 at 48 h in data set [1] of 11.1 µM. For the same molecule, the inhibition at 10 µM in data set [2] was 25.6%; in data set [3], -15.4%. Also, the figures for the IC50 in data set [4] and in data set [6] were 0.279 µM and 35.7 µM, respectively. Also, the “bioavailability indicated by the in vitro Caco2 study” value (from here on “bioavailability indicated”) in data set [5] is given as “good bioavailability”.
`Cc1cn(-c2cc(CN3CCC[C@H](N)C3)cc(NC(=O)c3cc(-c4ccccc4)ccn3)c2)cn1` [compound 29, (S)—N-(3-((3-aminopiperidin-1-yl)methyl)-5-(4-methyl-1H-imidazol-1-yl)phenyl)-4-phenylpicolinamide] had an IC50 at 48 h in data set [1] of 3.23 µM. Also, the inhibition at 10 µM in data set [2] was 69.8%; in data set [3], 74%. Besides, the IC50 in data set [4] was determined as 0.32 µM; in data set [6], 2.85 µM. The “bioavailability indicated” value in data set [5] is listed as “good bioavailability”.
In turn, `Cc1cnc(C(=O)Nc2cc(CN3CCC(F)(F)[C@H](N)C3)cc(-c3ccc(C(F)(F)F)nc3)c2)cc1-c1ccccc1` [compound 131] returned an IC50 at 48 h in data set [1] of 109 µM. Moreover, the inhibition at 10 µM in data set [2] amounted to 11.4%; in data set [3], 0.68%. Besides, the figures for the IC50 in data set [4] and in data set [6] were 0.547 µM and 94.2 µM, respectively. Besides, in data set [5], the “bioavailability indicated” value was “good bioavailability”.
